How the values were obtained:
Experiment in all cases: KINOMEscan scanMAX
Format in all cases: binding
[1] = molecular target: T1, PIM1 (Homo sapiens, UniProt P11309); conditions: read-out: Percent Control
T1 construct: purchased Eurofins Discovery (DiscoverX KINOMEscan scanMAX)
Method: (§1) The kinome-wide binding assay was performed by Eurofins Discovery using the scanMAX screening platform. More information can be found on the Eurofins Discovery Web site.

[2] = molecular target: T2, ABL1(Y253F)-phosphorylated (Homo sapiens, UniProt P00519, Y253F); conditions: read-out: Percent Control
T2 construct: purchased Eurofins Discovery (DiscoverX KINOMEscan scanMAX)
Method: as §1

[3] = molecular target: T3, TGFBR1 (Homo sapiens, UniProt P36897); conditions: read-out: Percent Control
T3 construct: purchased Eurofins Discovery (DiscoverX KINOMEscan scanMAX)
Method: as §1

[4] = molecular target: T4, ERK5 (Homo sapiens, UniProt Q13164); conditions: read-out: Percent Control
T4 construct: purchased Eurofins Discovery (DiscoverX KINOMEscan scanMAX)
Method: as §1

[5] = molecular target: T5, WNK4 (Homo sapiens, UniProt Q96J92); conditions: read-out: Percent Control
T5 construct: purchased Eurofins Discovery (DiscoverX KINOMEscan scanMAX)
Method: as §1

[6] = molecular target: T6, ROS1 (Homo sapiens, UniProt P08922); conditions: read-out: Percent Control
T6 construct: purchased Eurofins Discovery (DiscoverX KINOMEscan scanMAX)
Method: as §1

[7] = molecular target: T7, CDK7 (Homo sapiens, UniProt P50613); conditions: read-out: Percent Control
T7 construct: purchased Eurofins Discovery (DiscoverX KINOMEscan scanMAX)
Method: as §1

[8] = molecular target: T8, CDK9 (Homo sapiens, UniProt P50750); conditions: read-out: Percent Control
T8 construct: purchased Eurofins Discovery (DiscoverX KINOMEscan scanMAX)
Method: as §1

[9] = molecular target: T9, PAK6 (Homo sapiens, UniProt Q9NQU5); conditions: read-out: Percent Control
T9 construct: purchased Eurofins Discovery (DiscoverX KINOMEscan scanMAX)
Method: as §1

[10] = molecular target: T10, RSK2(Kin.Dom.1-N-terminal) (Homo sapiens, UniProt P51812); conditions: read-out: Percent Control
T10 construct: RSK2(Kin.Dom.1-N-terminal); purchased Eurofins Discovery (DiscoverX KINOMEscan scanMAX)
Method: as §1

[11] = molecular target: T11, CDKL1 (Homo sapiens, UniProt Q00532); conditions: read-out: Percent Control
T11 construct: purchased Eurofins Discovery (DiscoverX KINOMEscan scanMAX)
Method: as §1

[12] = molecular target: T12, MAP3K3 (Homo sapiens, UniProt Q99759); conditions: read-out: Percent Control
T12 construct: purchased Eurofins Discovery (DiscoverX KINOMEscan scanMAX)
Method: as §1

[13] = molecular target: T13, AMPK-alpha2 (Homo sapiens, UniProt P54646); conditions: read-out: Percent Control
T13 construct: purchased Eurofins Discovery (DiscoverX KINOMEscan scanMAX)
Method: as §1

[14] = molecular target: T14, NEK9 (Homo sapiens, UniProt Q8TD19); conditions: read-out: Percent Control
T14 construct: purchased Eurofins Discovery (DiscoverX KINOMEscan scanMAX)
Method: as §1

[15] = molecular target: T15, FES (Homo sapiens, UniProt P07332); conditions: read-out: Percent Control
T15 construct: purchased Eurofins Discovery (DiscoverX KINOMEscan scanMAX)
Method: as §1

[16] = molecular target: T16, RIOK1 (Homo sapiens, UniProt Q9BRS2); conditions: read-out: Percent Control
T16 construct: purchased Eurofins Discovery (DiscoverX KINOMEscan scanMAX)
Method: as §1

[17] = molecular target: T17, RSK3(Kin.Dom.1-N-terminal) (Homo sapiens, UniProt Q15349); conditions: read-out: Percent Control
T17 construct: RSK3(Kin.Dom.1-N-terminal); purchased Eurofins Discovery (DiscoverX KINOMEscan scanMAX)
Method: as §1

[18] = molecular target: T18, TNNI3K (Homo sapiens, UniProt Q59H18); conditions: read-out: Percent Control
T18 construct: purchased Eurofins Discovery (DiscoverX KINOMEscan scanMAX)
Method: as §1

[19] = molecular target: T19, ARK5 (Homo sapiens, UniProt O60285); conditions: read-out: Percent Control
T19 construct: purchased Eurofins Discovery (DiscoverX KINOMEscan scanMAX)
Method: as §1

[20] = molecular target: T20, PIK3CA (Homo sapiens, UniProt P42336); conditions: read-out: Percent Control
T20 construct: purchased Eurofins Discovery (DiscoverX KINOMEscan scanMAX)
Method: as §1

[21] = molecular target: T21, MAP4K4 (Homo sapiens, UniProt O95819); conditions: read-out: Percent Control
T21 construct: purchased Eurofins Discovery (DiscoverX KINOMEscan scanMAX)
Method: as §1

[22] = molecular target: T22, AKT3 (Homo sapiens, UniProt Q9Y243); conditions: read-out: Percent Control
T22 construct: purchased Eurofins Discovery (DiscoverX KINOMEscan scanMAX)
Method: as §1

[23] = molecular target: T23, CSNK1G1 (Homo sapiens, UniProt Q9HCP0); conditions: read-out: Percent Control
T23 construct: purchased Eurofins Discovery (DiscoverX KINOMEscan scanMAX)
Method: as §1

[24] = molecular target: T24, BMPR1A (Homo sapiens, UniProt P36894); conditions: read-out: Percent Control
T24 construct: purchased Eurofins Discovery (DiscoverX KINOMEscan scanMAX)
Method: as §1

[25] = molecular target: T25, MAP3K15 (Homo sapiens, UniProt Q6ZN16); conditions: read-out: Percent Control
T25 construct: purchased Eurofins Discovery (DiscoverX KINOMEscan scanMAX)
Method: as §1

[26] = test system: FLT3(ITD,D835V)
Method: as §1

[27] = molecular target: T26, RPS6KA5(Kin.Dom.1-N-terminal) (Homo sapiens, UniProt O75582); conditions: read-out: Percent Control
T26 construct: RPS6KA5(Kin.Dom.1-N-terminal); purchased Eurofins Discovery (DiscoverX KINOMEscan scanMAX)
Method: as §1

[28] = molecular target: T27, MYO3B (Homo sapiens, UniProt Q8WXR4); conditions: read-out: Percent Control
T27 construct: purchased Eurofins Discovery (DiscoverX KINOMEscan scanMAX)
Method: as §1

[29] = molecular target: T28, CDC2L5 (Homo sapiens, UniProt Q14004); conditions: read-out: Percent Control
T28 construct: purchased Eurofins Discovery (DiscoverX KINOMEscan scanMAX)
Method: as §1

[30] = molecular target: T29, CSNK1A1L (Homo sapiens, UniProt Q8N752); conditions: read-out: Percent Control
T29 construct: purchased Eurofins Discovery (DiscoverX KINOMEscan scanMAX)
Method: as §1

[31] = molecular target: T30, BRAF (Homo sapiens, UniProt P15056); conditions: read-out: Percent Control
T30 construct: purchased Eurofins Discovery (DiscoverX KINOMEscan scanMAX)
Method: as §1

[32] = molecular target: T31, ALK (Homo sapiens, UniProt Q9UM73); conditions: read-out: Percent Control
T31 construct: purchased Eurofins Discovery (DiscoverX KINOMEscan scanMAX)
Method: as §1

T27 sequence (Q8WXR4 whole entry): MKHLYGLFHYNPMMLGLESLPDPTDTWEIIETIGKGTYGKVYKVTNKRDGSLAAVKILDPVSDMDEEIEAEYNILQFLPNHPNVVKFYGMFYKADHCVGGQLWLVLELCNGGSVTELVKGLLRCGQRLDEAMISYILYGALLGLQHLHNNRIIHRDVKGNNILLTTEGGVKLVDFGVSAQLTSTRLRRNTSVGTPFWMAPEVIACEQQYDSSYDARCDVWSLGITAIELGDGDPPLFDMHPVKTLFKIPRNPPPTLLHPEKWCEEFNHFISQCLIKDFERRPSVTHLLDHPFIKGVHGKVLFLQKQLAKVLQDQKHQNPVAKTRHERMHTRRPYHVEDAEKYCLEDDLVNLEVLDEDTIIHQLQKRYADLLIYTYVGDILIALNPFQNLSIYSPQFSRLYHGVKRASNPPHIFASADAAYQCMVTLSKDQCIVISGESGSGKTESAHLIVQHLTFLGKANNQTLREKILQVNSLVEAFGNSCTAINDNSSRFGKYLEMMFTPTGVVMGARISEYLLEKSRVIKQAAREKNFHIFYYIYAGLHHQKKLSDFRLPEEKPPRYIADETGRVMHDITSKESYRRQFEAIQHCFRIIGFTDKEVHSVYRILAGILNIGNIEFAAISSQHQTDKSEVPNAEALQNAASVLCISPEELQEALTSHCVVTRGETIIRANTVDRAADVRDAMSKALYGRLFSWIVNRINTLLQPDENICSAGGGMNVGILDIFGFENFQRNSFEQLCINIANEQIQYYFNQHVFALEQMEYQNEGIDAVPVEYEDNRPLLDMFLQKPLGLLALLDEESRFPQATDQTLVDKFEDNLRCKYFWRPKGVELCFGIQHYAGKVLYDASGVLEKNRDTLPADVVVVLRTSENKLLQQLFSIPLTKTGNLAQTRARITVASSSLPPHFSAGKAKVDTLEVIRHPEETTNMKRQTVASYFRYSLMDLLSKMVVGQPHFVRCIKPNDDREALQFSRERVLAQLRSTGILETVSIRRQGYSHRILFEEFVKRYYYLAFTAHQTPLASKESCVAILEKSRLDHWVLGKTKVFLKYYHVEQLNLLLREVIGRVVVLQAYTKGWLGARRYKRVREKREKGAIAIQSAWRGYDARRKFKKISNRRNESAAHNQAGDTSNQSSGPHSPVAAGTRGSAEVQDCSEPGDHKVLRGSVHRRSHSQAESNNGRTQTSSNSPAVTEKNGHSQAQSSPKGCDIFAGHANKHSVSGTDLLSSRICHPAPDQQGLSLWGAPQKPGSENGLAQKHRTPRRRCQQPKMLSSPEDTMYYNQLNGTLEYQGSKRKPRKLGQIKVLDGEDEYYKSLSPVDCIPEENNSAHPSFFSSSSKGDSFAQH
T1 sequence (P11309 whole entry): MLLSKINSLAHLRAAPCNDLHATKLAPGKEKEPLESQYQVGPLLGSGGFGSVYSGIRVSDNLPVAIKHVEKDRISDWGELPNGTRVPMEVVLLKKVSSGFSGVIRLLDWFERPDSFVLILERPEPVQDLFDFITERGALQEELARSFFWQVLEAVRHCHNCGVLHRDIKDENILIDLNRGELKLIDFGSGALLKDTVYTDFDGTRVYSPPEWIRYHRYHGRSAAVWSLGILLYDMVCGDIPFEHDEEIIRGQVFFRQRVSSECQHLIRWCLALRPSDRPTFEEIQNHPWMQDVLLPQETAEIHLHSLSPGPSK
T5 sequence (Q96J92 whole entry): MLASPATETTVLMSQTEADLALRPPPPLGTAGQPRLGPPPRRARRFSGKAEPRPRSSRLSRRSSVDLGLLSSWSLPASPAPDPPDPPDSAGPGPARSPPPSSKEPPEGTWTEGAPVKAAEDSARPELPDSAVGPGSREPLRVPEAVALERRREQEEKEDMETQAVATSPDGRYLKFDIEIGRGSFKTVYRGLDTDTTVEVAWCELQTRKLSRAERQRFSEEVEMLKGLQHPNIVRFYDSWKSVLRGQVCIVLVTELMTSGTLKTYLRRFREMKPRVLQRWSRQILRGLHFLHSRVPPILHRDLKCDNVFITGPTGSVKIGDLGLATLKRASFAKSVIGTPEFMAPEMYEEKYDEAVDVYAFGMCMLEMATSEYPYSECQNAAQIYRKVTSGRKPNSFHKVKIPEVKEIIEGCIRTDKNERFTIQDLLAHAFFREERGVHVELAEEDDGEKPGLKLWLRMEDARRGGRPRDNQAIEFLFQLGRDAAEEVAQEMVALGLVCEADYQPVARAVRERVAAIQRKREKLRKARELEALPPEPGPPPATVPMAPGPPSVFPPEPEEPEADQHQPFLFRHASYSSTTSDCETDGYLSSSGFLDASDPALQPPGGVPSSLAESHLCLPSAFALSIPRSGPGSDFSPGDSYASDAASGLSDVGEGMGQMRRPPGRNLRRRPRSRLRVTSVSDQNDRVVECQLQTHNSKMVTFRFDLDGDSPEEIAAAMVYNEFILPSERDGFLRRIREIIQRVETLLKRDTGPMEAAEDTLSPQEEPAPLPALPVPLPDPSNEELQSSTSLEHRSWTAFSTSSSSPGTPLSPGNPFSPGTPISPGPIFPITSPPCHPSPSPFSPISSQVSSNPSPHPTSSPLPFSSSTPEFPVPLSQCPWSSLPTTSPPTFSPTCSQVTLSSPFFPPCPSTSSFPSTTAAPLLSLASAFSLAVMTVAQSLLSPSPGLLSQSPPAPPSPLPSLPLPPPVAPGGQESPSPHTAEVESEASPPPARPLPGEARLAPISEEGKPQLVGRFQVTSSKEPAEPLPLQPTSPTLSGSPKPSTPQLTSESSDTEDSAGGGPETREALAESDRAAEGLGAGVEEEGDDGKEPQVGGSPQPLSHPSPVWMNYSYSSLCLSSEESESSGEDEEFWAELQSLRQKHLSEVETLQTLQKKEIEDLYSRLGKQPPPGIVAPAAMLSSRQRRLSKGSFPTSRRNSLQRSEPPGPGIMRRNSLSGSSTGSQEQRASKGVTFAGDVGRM
T21 sequence (O95819 whole entry): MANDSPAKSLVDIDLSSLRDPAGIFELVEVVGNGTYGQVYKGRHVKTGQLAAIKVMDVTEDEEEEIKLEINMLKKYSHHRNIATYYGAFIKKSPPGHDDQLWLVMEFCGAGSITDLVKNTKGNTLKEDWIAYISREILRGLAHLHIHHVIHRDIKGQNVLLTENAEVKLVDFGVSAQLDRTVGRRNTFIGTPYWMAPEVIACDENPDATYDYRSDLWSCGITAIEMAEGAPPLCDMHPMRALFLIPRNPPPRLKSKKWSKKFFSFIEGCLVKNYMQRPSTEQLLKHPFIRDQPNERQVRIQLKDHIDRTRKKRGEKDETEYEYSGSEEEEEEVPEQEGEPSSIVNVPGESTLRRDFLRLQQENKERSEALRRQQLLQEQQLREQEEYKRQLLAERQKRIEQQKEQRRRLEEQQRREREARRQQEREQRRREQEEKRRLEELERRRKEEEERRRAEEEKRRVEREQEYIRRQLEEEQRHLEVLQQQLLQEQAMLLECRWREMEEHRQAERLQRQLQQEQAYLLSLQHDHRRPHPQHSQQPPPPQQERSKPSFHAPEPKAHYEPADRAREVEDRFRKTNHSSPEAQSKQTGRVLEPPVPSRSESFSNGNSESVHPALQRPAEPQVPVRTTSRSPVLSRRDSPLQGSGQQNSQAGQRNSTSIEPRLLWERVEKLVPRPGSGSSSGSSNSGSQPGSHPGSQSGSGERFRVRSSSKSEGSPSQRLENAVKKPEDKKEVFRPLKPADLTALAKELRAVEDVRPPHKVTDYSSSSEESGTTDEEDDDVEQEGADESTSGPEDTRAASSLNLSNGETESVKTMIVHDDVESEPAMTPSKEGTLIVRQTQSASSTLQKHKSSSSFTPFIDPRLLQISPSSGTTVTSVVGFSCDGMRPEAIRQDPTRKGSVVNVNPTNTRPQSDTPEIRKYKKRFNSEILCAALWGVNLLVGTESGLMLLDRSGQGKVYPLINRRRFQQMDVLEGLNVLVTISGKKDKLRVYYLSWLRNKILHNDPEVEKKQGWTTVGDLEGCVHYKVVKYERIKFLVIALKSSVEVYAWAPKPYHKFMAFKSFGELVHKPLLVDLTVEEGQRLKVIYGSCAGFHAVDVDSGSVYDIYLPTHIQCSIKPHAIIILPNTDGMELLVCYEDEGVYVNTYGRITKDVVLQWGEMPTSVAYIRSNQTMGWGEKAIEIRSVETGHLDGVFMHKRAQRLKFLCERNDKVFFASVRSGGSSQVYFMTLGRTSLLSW
T12 sequence (Q99759 whole entry): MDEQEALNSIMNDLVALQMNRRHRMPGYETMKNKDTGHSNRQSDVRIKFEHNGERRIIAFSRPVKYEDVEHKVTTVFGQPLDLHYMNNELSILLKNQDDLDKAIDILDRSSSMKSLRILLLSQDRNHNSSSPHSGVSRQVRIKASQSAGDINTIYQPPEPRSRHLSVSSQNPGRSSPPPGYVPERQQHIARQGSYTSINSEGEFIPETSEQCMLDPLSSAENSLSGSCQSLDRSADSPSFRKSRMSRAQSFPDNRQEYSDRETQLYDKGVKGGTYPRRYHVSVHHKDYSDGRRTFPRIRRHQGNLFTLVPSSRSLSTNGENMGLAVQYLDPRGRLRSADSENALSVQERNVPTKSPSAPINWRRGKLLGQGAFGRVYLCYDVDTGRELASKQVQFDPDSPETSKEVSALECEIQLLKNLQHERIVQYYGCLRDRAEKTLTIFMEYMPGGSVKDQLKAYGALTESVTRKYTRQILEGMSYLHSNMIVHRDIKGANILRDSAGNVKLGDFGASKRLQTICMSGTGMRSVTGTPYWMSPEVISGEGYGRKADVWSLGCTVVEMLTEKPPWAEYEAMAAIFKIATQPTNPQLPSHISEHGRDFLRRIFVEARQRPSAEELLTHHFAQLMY
T29 sequence (Q8N752 whole entry): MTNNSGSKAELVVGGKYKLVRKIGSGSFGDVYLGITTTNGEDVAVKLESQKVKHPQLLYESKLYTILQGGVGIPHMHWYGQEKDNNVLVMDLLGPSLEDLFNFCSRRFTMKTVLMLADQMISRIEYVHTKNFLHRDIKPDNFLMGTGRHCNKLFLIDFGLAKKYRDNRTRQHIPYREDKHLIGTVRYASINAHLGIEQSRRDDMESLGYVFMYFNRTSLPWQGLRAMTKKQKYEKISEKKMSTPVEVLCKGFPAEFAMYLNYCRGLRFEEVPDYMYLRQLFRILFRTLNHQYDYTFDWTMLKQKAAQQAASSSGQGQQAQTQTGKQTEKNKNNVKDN

## Cc1cc(Nc2ccc(F)c(CC3(C(=O)N4CCC(F)(CN5CCN(c6ccc(N7CCC(=O)NC7=O)cn6)CC5)CC4)CCN(Cc4cccc(Cl)c4F)CC3)n2)n[nH]1 [SK5527]
[1]; 100 nM
  remaining binding at 0.1 µM: 100%
[1]; 1000 nM
  remaining binding at 1 µM: 99%
[2]; 100 nM
  remaining binding at 0.1 µM: 63%
[2]; 1000 nM
  remaining binding at 1 µM: 36%
[3]; 100 nM
  remaining binding at 0.1 µM: 100%
[3]; 1000 nM
  remaining binding at 1 µM: 100%
[4]; 100 nM
  remaining binding at 0.1 µM: 100%
[4]; 1000 nM
  remaining binding at 1 µM: 93%
[5]; 100 nM
  remaining binding at 0.1 µM: 80%
[5]; 1000 nM
  remaining binding at 1 µM: 95%
[6]; 100 nM
  remaining binding at 0.1 µM: 61%
[6]; 1000 nM
  remaining binding at 1 µM: 16%
[7]; 100 nM
  remaining binding at 0.1 µM: 91%
[7]; 1000 nM
  remaining binding at 1 µM: 100%
[8]; 100 nM
  remaining binding at 0.1 µM: 90%
[8]; 1000 nM
  remaining binding at 1 µM: 97%
[9]; 100 nM
  remaining binding at 0.1 µM: 100%
[9]; 1000 nM
  remaining binding at 1 µM: 100%
[10]; 100 nM
  remaining binding at 0.1 µM: 80%
[10]; 1000 nM
  remaining binding at 1 µM: 68%
[11]; 100 nM
  remaining binding at 0.1 µM: 99%
[11]; 1000 nM
  remaining binding at 1 µM: 94%
[12]; 100 nM
  remaining binding at 0.1 µM: 100%
[12]; 1000 nM
  remaining binding at 1 µM: 96%
[13]; 100 nM
  remaining binding at 0.1 µM: 93%
[13]; 1000 nM
  remaining binding at 1 µM: 100%
[14]; 100 nM
  remaining binding at 0.1 µM: 78%
[14]; 1000 nM
  remaining binding at 1 µM: 81%
[15]; 100 nM
  remaining binding at 0.1 µM: 100%
[15]; 1000 nM
  remaining binding at 1 µM: 100%
[16]; 100 nM
  remaining binding at 0.1 µM: 100%
[16]; 1000 nM
  remaining binding at 1 µM: 100%
[17]; 100 nM
  remaining binding at 0.1 µM: 100%
[17]; 1000 nM
  remaining binding at 1 µM: 96%
[18]; 100 nM
  remaining binding at 0.1 µM: 73%
[18]; 1000 nM
  remaining binding at 1 µM: 70%
[19]; 100 nM
  remaining binding at 0.1 µM: 83%
[19]; 1000 nM
  remaining binding at 1 µM: 90%
[20]; 100 nM
  remaining binding at 0.1 µM: 94%
[20]; 1000 nM
  remaining binding at 1 µM: 90%
[21]; 100 nM
  remaining binding at 0.1 µM: 86%
[21]; 1000 nM
  remaining binding at 1 µM: 73%
[22]; 100 nM
  remaining binding at 0.1 µM: 86%
[22]; 1000 nM
  remaining binding at 1 µM: 91%
[23]; 100 nM
  remaining binding at 0.1 µM: 100%
[23]; 1000 nM
  remaining binding at 1 µM: 98%
[24]; 100 nM
  remaining binding at 0.1 µM: 100%
[24]; 1000 nM
  remaining binding at 1 µM: 100%
[25]; 100 nM
  remaining binding at 0.1 µM: 100%
[25]; 1000 nM
  remaining binding at 1 µM: 81%
[26]; 100 nM
  Percent Control: 79%
[26]; 1000 nM
  Percent Control: 59%
[27]; 100 nM
  remaining binding at 0.1 µM: 95%
[27]; 1000 nM
  remaining binding at 1 µM: 100%
[28]; 100 nM
  remaining binding at 0.1 µM: 100%
[28]; 1000 nM
  remaining binding at 1 µM: 100%
[29]; 100 nM
  remaining binding at 0.1 µM: 82%
[29]; 1000 nM
  remaining binding at 1 µM: 73%
[30]; 100 nM
  remaining binding at 0.1 µM: 91%
[30]; 1000 nM
  remaining binding at 1 µM: 87%
[31]; 100 nM
  remaining binding at 0.1 µM: 100%
[31]; 1000 nM
  remaining binding at 1 µM: 100%
[32]; 100 nM
  remaining binding at 0.1 µM: 73%
[32]; 1000 nM
  remaining binding at 1 µM: 62%
